According to patent publication US20250170097A1, “CATHEPSIN INHIBITORS AND USE THEREOF IN A METHOD FOR DETECTING AND TREATING RESISTANCE TO IMMUNOTHERAPY” (YISSUM RESEARCH DEVELOPMENT COMPANY OF THE HEBREW …, priority 2022, published 2025):

What was measured:
[1] = test system: NF-κB reporter in OCI-Ly19 cells; assay: NF-κB signaling assay (luciferase reporter); type: cell-based; conditions: 5 μM, 0.5 μg LPS, 24 h induction; potent as SC-514
Procedure: Cells were transfected by electroporation with NF-κB reporter plasmid. After selection, the cells were harvested, and the luciferase activities were measured and normalized. 5 μM GB111-NH2 inhibited activity of NF-κB reporter in OCI-Ly 19 cells induced by 0.5 μg LPS (24 h induction). 10 μM SC-514, a specific suppressor of NF-κB activity, was used as positive control.

OCI-Ly19 DLBCL cells = assay: Lymphoma cell death assay (caspase-3 activation, annexin V staining); type: cell-based
Procedure: OCI-Ly19 DLBCL cells were treated with GB111-NH2 for 1 hour and the cells were evaluated for caspase-3 activation and annexin V staining as indications for apoptosis.
Caspase-3 activation was assessed through the evaluation of caspase-3 enzyme activity (100 ng of protein) with the substrate Ac-DEVD-pNA (N-acetyl-Asp-Glu-Val-Asp-p-nitroaniline) in a colorimetric assay 24 hours post treatment.

[2] = test system: endogenous cathepsin activity (cathepsin L/B) in lung cancer A549 cells; assay: Cathepsin inhibition in intact A549 cells, residual activity labeled with GB123; type: cell-based; conditions: for IC50: 1 hour at 37° C., FIG. 9B
Procedure: The ability of MGB to penetrate cells and inhibit endogenous cathepsin activity was tested in lung cancer A549 cells. This model (lung cells) was chosen since corona virus is known to infect the respiratory system. Intact cells were treated with inhibitors and the residual activity was determined by GB123. Inhibition was detected on SDS-PAGE Potent inhibitors reduce the residual activity and as a result, a reduction in fluorescently labeled cathepsins is seen (FIG. 9A). The cathepsin activity was quantification and IC50 curves were plotted.

B16-F10 tumors = assay: Resistant B16-F10 melanoma tumor-bearing mice; type: in vivo; conditions: combination of GB111-NH2 (30 mg/kg) and anti PD-1 (100 μg/dose), every 4 days from day 5
Procedure: A sensitive IT treatment model, D4M tumors and, a more resistant model, IT B16-F10 tumor Cells were injected subcutaneously (SC) to the back of the mice and their growth was measured continuously by caliper. Anti PD-1 was administered intra peritoneally (IP) twice, a few days after the tumor could be palpated, and on indicated days and doses as described in the methods, changes in tumor volume were measured during the experiment (FIG. 4A).
To determine the cathepsin activity in both models, one day prior to sacrifice, GB123 (a fluorescent cathepsin activity-based probe) was administered IV, and tumors were harvested for further biochemical examination. Tumor tissue was subjected to fluorescence-activated cell sorting (FACS) analysis to determine the percentage of tumor associated macrophages (TAMs) that express high cathepsin activity.
The effect of the inhibition of cathepsin activity on the resistance to IT was examined using the resistant B16-F10 tumor-bearing mice with IT (anti-PD-1), GB111-NH2 (cathepsin inhibitor), or their combinations. The B16-F10 tumor-bearing mice were treated every 4 days, starting on day 5 after cell inoculation with anti PD-1 (100 μg/dose), GB111-NH2 (30 mg/kg) or their combinations; IT was given a day before GB111-NH2 (a group of GB111-NH2 first and IT a day later was included). […] In addition, survival plots were generated (FIG. 6B).

[3] = test system: A549, HepG2, U87, and Hacat cells; assay: Cell viability assay (methylene blue, 72 hours); type: cell-based
Procedure: The cells were incubated with compounds at indicated concentrations for 72 hours at 37° C. and then fixed by 2.5% glutaraldehyde for 1 hour at room temperature and stained with methylene blue. Growth was compared to vehicle-treated cells designated as 100%.

cathepsins B, L and S = assay: Cathepsin activity in lysates of patients' cells and hematological malignancy cell lines, GB123 labeling; type: cell-based, human
Procedure: Cell lysates from hematological malignancies patients were pretreated with vehicle, or a cathepsin inhibitor GB111-NH2 for 0.5 hour, then labeled by addition of 1 μmol/L GB123 probe for 1 hour. Equal amounts of protein were separated and visualized by scanning of the gel with a Typhoon flatbed laser scanner. Each lane was taken from a different patient. MZL-Marginal zone lymphoma, CLL-chronic lymphocytic leukemia, DLBCL-Diffuse large B-cell lymphoma.
Crude detergent lysates from cells that were pretreated with either cathepsin inhibitor GB111-NH2 or with control DMSO; vehicle for 20 minutes and then labeled by addition of 1 μmol/L GB123 probe for 1 hour. Equal amounts of protein (see Coomassie) were separated and visualized by scanning of the gel with a Typhoon flatbed laser scanner.
To verify activity dependent labeling, indicated samples were pre-incubated with GB111-NH2, a potent cathepsin inhibitor, prior to GB123 labeling. After incubation with GB123, a fluorescent scan of SDS-PAGE was done. Cathepsin activity was detected in lysates of cells from human Chronic lymphocytic leukemia (CLL) and Diffuse large B-cell lymphoma (DLBCL) patients as well as healthy population (FIG. 13).

[4] = test system: CD74 in OCI-Ly3 and OCI-Ly19; assay: CD74 expression by Western blot and FACS; type: cell-based
Source text: The CD74 expression was examined by Western blot (WB) and FACS in OCI-Ly3 and OCI-Ly19 treated with GB111-NH2, LPS or LPS pretreated with GB111-NH2.

[5] = test system: blood cells isolated from peripheral blood and bone marrow of CLL patients; assay: Annexin V staining and cathepsin S activity in blood cells of CLL patients; type: cell-based, human
Procedure: FIGS. 14A-14D are bar graphs and images presenting the inhibition of cathepsins induces apoptosis in OCI-Ly19 cells. (14A) Caspase-3 activation; (14B) FACS analysis of stained cells with anti-Annexin V; (14C) Mononuclear cells from CLL patients were isolated by FICOL, treated with 5 uM GB111-NH2 for 1 hour and stained with anti-Annexin V; and (14D) labeled crude detergent lysates.
The ability of GB111-NH2 to promote lymphoma cell death was examined. […] Cathepsin S activity in these cells was initially high and was reduced to 40% (+10%).

[6] = test system: endogenous cathepsin activity; assay: Endogenous inhibition of cathepsin activity, ACE2-ab-MGB compared to MGB (FIG. 10); type: cell-based; conditions: FIG. 10A-10B
Procedure: 2.5*10^5 cells per well (A549, U87 or HepG2), were seeded in 6 well plates one day before incubation with indicated concentrations of inhibitors (GB111-NH2 or MGB, respectively) for 1 hour at 37° C. Residual cathepsin activity was labeled by the addition of 2 μM of GB123 for 2 hours at 37° C. Sample buffer was added and samples were boiled at 100° C. for 10 min. Equal protein amounts of each sample were resolved by a 12.5% SDS PAGE. a) Gels were scanned for fluorescence by a Typhoon scanner. b) The gel bands were quantified using ImageJ software and IC50 curves were generated from triplicate experiments using Prism-GraphPad software.

[7] = target: Recombinant cathepsin L (rCatL) (Homo sapiens, UniProt P07711); assay: Competitive inhibition of recombinant cathepsin L, residual activity labeled with GB123, SDS PAGE; type: biochemical; conditions: fluorescent SDS-PAGE, FIG. 8C
Sequence of Recombinant cathepsin L (rCatL) (P07711 114-333, species assumed): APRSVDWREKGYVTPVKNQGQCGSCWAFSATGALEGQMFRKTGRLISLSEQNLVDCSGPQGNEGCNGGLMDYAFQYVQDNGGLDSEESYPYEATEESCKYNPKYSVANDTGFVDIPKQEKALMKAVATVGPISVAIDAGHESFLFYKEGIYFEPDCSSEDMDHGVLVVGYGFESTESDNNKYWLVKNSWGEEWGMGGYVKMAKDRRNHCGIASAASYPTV
Procedure: (§1) Recombinant cathepsin B and L (rCatB and rCatL, respectively) were incubated for 45 minutes at 37° C. with 1 μl of increasing concentrations of cathepsin inhibitors (GB111-NH2 or MGB, respectively), residual cathepsin activity was labeled by addition of 1 μM of GB123 fluorescent activity-based probe for 45 minutes at 37° C., sample buffer was added for 2 min and the sample was boiled at 100° C. for 2 minutes. Equal amount of each sample was separated by a 12.5% SDS PAGE, this experiment was repeated 3 times. The gel was scanned for fluorescence by a Typhoon scanner. The bands were quantified by ImageJ software and then IC50 curves were generated from triplicate experiment by Prism-GraphPad software.

[8] = target: Recombinant cathepsin B (rCatB) (Homo sapiens, UniProt P07858); assay: Competitive inhibition of recombinant cathepsin B, residual activity labeled with GB123, SDS PAGE; type: biochemical; conditions: fluorescent SDS-PAGE, FIG. 8C
Procedure: as §1

Row | IC50 [2] [µM] | IC50 [6] [µM] | inhibition of rCatL [7] | inhibition of rCatB [8] | Structure (SMILES) | LPS-induced NF-κB transcriptional activity [1] | increase in caspase-3 activity (OCI-Ly19 DLBCL cells; OCI-Ly19, 24 hours post treatment) [fold] | increase in Annexin V staining (OCI-Ly19 DLBCL cells; OCI-Ly19, treated for 1 hour) [fold] | potency relative to MGB [2] | Tumor volume (B16-F10 tumors) | cell viability ([3]; even at low concentrations as 1 μM) | cathepsin activity in OCI-Ly19 cells (cathepsins B, L and S; NF-κB reporter cells treated with LPS) | cathepsins activity (cathepsins B, L and S; patients' cells and lymphoma cell lines, pretreatment before GB123 labeling) | surface expression of CD74 (FACS) [4] | Annexin V staining ([5]; 5 uM for 1 hour, p value 0.016) | Cathepsin S activity, reduced to ([5]; CLL patients' cells) [%] | cell viability ([3]; even at a concentration of 5 μM)
1 | 0.006 | – | – | – | Cc1cccc(C)c1C(=O)OCC(=O)[C@H](CCCCN)NC(=O)[C@H](Cc1ccccc1)NC(=O)OCc1ccccc1 [GB111-NH2] | suppressed LPS-induced NF-κB transcriptional activity | 4.5 | 2.5 | over 200 fold | significantly smaller tumors | reduced cell viability significantly | blocked cathepsin activity | abolished cathepsins activity | reduces the surface expression of CD74 | increased Annexin V staining | 40 | –
2 | 1.9 | 1.7 ± 0.6 | inhibits | inhibits | Cc1cccc(C)c1C(=O)OCC(=O)[C@H](CCCCN)NC(=O)[C@H](Cc1ccccc1)NC(=O)[C@H](Cc1ccccc1)NC(=O)CCCCCN1C(=O)C=CC1=O [MGB] | – | – | – | – | – | – | – | – | – | – | – | safe to cells
